# Results published in patent publication US11179348B2, “Combination comprising pterostilbene for the treatment of cancer” (FUNDACIÓN UNIVERSIDAD CATÓLICA DE VALENCIA SAN VICENTE …, priority 2015, dated 2021).
# What was measured:
# Design in all cases: species or system human
# [1] = system: MelJuso melanoma cells; assay: Nrf2- and redox state-related enzyme activities and metabolites in MelJuso cells growing in vivo; settings: in vivo +Pter, day 35
# Procedure: (§1) Transfection of the Red Fluorescence Protein.
# (§2) First the pDsRed-2 vector (Clontech Laboratories Inc., Palo Alto, Calif.) was used, as previously described for A375 melanoma cells (Mena, S. et al. J Transl Med 10, 8 (2012)), to engineer A2058, MeWo and MelJuso melanoma clones stably expressing the RFP. Isolation of A2058-RFP, MeWo-RFP or MelJuso-RFP cells from the growing xenografts was performed by laser microdissection and high-performance cell sorting as previously described in detail (Mena, S. et al. J Transl Med 10, 8 (2012)).
# (§3) To measure enzyme activity, isolated tumor cells were homogenized in 0.1 M phosphate buffer (pH 7.2) at 4° C. GCL and GSS activities were measured as described previously (Obrador, E. et al. Hepatology 35, 74-81 (2002)). GPX (selenium dependent) activity was measured as described by Flohé and Gunzler (Flohe, L. & Gunzler, W. A. Methods Enzymol 105, 114-121 (1984)) using H2O2 as a substrate. GSR activity was determined as described by Akerboom and Sies (Akerboom, T. P. et al, Bull Eur Physiopathol Respir 17 Suppl, 221-227 (1981)). GGT activity was measured as described previously (Obrador, E. et al. Hepatology 35, 74-81 (2002)). GST activity was measured using an assay kit from Sigma. TXNRD activity, defined by the concentration of sodium-lipoate (disulfide) reduced to dehydrolipoate (dithiol) per milligram protein, was measured as previously described (Javvadi, P. et al. Cancer Res 70, 1941-1950 (2010)). SOD activity was measured as described by Flohé and Otting (Flohe, L. & Otting, F. Methods Enzymol 105, 93-104 (1984).) using 2 mM cyanide in the assay medium to distinguish mangano-type enzyme (SOD2) from the cuprozinc type (SOD1). CAT activity was analyzed as described by Aebi (Aebi, H. Methods Enzymol 105, 121-126 (1984)). NOX activity was measured by chemiluminescence following the methodology of Wind et al. (Wind, S. et al. Comparative pharmacology of chemically distinct NADPH oxidase inhibitors. Br J Pharmacol 161, 885-898 (2010)). Protein concentration was determined with the Pierce BCA protein assay (Fisher Scientific, Waltham, Mass.).
# (§4) Measurement of H2O2 and O2^⋅−.
# (§5) Quantitative measurement of H2O2 and flow cytometry determination of O2^⋅− generation were performed as previously described (Benlloch, M. et al. J Biol Chem 281, 69-79 (2006)).
# (§6) GSH, GSSG, NADP^+ and NADPH Determination.
# (§7) GSH and GSSG were determined, following procedures previously described (Obrador, E. et al. PLoS One 9, e96466 (2014)), by LC/MS using the same equipment described above for pterostilbene determination. Cell processing was performed according to published methodology, where rapid N-ethylmaleimide derivatization was used to prevent GSH auto-oxidation (Asensi, M. et al. Anal Biochem 217, 323-328 (1994)). NADP^+ and NADPH were quantitated using an assay kit from Sigma (St. Louis, Mo.).
# [2] = system: LNCaP prostate adenocarcinoma; assay: In vivo growth of LNCaP prostate cancer xenografts; settings: day 49
# [3] = system: A2058 melanoma cells; assay: Nrf2- and redox state-related enzyme activities and metabolites in A2058 cells growing in vivo; settings: A2058, in vivo +Pter, day 35
# Procedure: as §1, §2, §3, §4, §5, §6, §7
structure (smiles),measurement,setting,value
"COc1cc(/C=C/c2ccc(O)cc2)cc(OC)c1 [Pter, trans-3,5-dimethoxy-4′-hydroxystilbene]",CAT,[1],1.1 ± 0.3 mU/10^6 cells
same,G6PDH,[1],366 ± 63 mU/10^6 cells
same,GCL,[1],49 ± 12 mU/10^6 cells
same,GGT,[1],15.9 ± 3.5 mU/10^6 cells
same,GPX,[1],2.1 ± 0.5 mU/10^6 cells
same,GSH,[1],10.8 ± 2.9 nmol/10^6 cells
same,GSH/GSSG,[1],108 ± 17
same,GSR,[1],5.1 ± 1.0 mU/10^6 cells
same,GSS,[1],7.8 ± 1.5 mU/10^6 cells
same,GSSG,[1],0.1 ± 0.04 nmol/10^6 cells
same,GST,[1],4.7 ± 1.3 mU/10^6 cells
same,H2O2,[1],0.8 ± 0.2 nmol/10^6 cells × min
same,IDH,[1],1.5 ± 0.4 U/10^6 cells
same,ME,[1],25 ± 7 mU/10^6 cells
same,NADPH,[1],0.05 ± 0.02 nmol/mg prot
same,NADPH/NADP^+,[1],1.7 ± 0.3
same,NADP^+,[1],0.03 ± 0.01 nmol/mg prot
same,NOX,[1],142 ± 37 R.L.U./10^6 cells
same,O2^−,[1],"5.0 ± 1.3 ΔFL1, a.u."
same,SOD1,[1],0.4 ± 0.2 U/10^6 cells
same,SOD2,[1],0.1 ± 0.05 U/10^6 cells
same,TXN,[1],0.3 ± 0.1 μg/10^6 cells
same,TXNRD,[1],0.6 ± 0.1 U/10^6 cells
same,Tumor vol.,[2],757 ± 194 mm^3
same,CAT,[3],1.7 ± 0.3 mU/10^6 cells
same,G6PDH,[3],305 ± 78 mU/10^6 cells
same,GCL,[3],58 ± 17 mU/10^6 cells
same,GGT,[3],19.6 ± 2.7 mU/10^6 cells
same,GPX,[3],3.9 ± 1.1 mU/10^6 cells
same,GSH,[3],10.5 ± 2.1 nmol/10^6 cells
same,GSH/GSSG,[3],35 ± 5
same,GSR,[3],6.1 ± 1.6 mU/10^6 cells
same,GSS,[3],8.5 ± 2.0 mU/10^6 cells
same,GSSG,[3],0.3 ± 0.1 nmol/10^6 cells
same,GST,[3],7.5 ± 1.3 mU/10^6 cells
same,H2O2,[3],0.7 ± 0.2 nmol/10^6 cells × min
same,IDH,[3],1.2 ± 0.4 U/10^6 cells
same,ME,[3],43 ± 12 mU/10^6 cells
same,NADPH,[3],0.06 ± 0.02 nmol/mg prot
same,NADPH/NADP^+,[3],1.2 ± 0.3
same,NADP^+,[3],0.05 ± 0.01 nmol/mg prot
same,NOX,[3],177 ± 4.5 R.L.U./10^6 cells
same,O2^−,[3],"3.9 ± 0.6 ΔFL1, a.u."
same,SOD1,[3],0.6 ± 0.2 U/10^6 cells
same,SOD2,[3],0.1 ± 0.05 U/10^6 cells
same,TXN,[3],0.5 ± 0.1 μg/10^6 cells
same,TXNRD,[3],0.7 ± 0.2 U/10^6 cells
